# Experimental data taken from US4770870A, “Method for reducing pain associated with the administration of 4-sulfido-oxazaphosphorines and 4-sulfoalkylthio-oxazaphorphorines” (Asta Pharma Aktiengesellschaft, priority 1981, dated 1988).
# Counter-ions that a name gives are not always drawn. Like-named read-outs stand apart in the source and are kept apart here.
# Experiments:
# [1] = Acute toxicity (LD50), single intravenous dose, species not stated; details: in vivo
# [2] = test system: Human mammary-carcinoma; test: Human mammary-carcinoma heterotransplanted to nu/nu mice; format: in vivo, human tumor in mouse (nu/nu); details: cyclophosphamide single injection of 100 mg/kg
# Description: (The experimental procedure was carried out as follows according to: C. O. Polvsen, G. K. Jacobsen, J. Rygaard, The Laboratory Animal in Drug Testing, Editor A. Spiegel, pages 63-73, Fischer-Verlag, Stuttgart, (1973).
# (a) Human mammary-carcinoma from operation material of a women's clinic were heterotransplanted to thymusaplastic nu/ny mice. After the 23-25th passage in each case by implantation of a thin tumor section having a diameter of 8-10 mm into the milk ducts after growth of the implants to 0.15-0.25 grams the animals were subjected to therapy and the curative effect determined through measuring the tumor surface.
# [3] = Subchronic toxicity, NMRI-mouse; details: same pattern without cysteine, total dosage 3 mmol/kg
# [4] = mouse, in vivo
smiles,measurement,setting,value
O=P1(N(CCCl)CCCl)NCCCO1 (centres unmarked) [cyclophosphamide],LD50,[1],244 mg/kg
same,Approximate threshold concentration inducing venous pain,"Table 1, sleeping rat",30 mg/mL
same,concentration at which no reaction was induced,sleeping rat,below 30 mg/ml
same,"Reaction (+ = reaction, - = no reaction)","sleeping rat, tail vein infusion",+
same,tumor growth,[2],checking of the tumor growth
same,deaths of mice,[3],6 mice
"O=P1(N(CCCl)CCCl)NC(SCC(S)CS(=O)(=O)O)CCO1 (centres unmarked) [cyclohexylamine salt, 3-[2-(bis-(2-chloroethyl)-amine-2-oxo-tetrahydro-2H-1,3,2-oxazaphosphorine-4-yl-thio]-2-mercaptopropanesulfonic acid-cyclohexylamine salt]",increase of the LD50,[4],2-3 fold
"Cl [HCl pH 4, hydrochloric acid]","Reaction (+ = reaction, - = no reaction)","rat, in vivo",-
same,reaction,"rat, in vivo",Neither
O=P1(NCCCl)OCCCN1CCCl (centres unmarked) [ifosfamide],Approximate threshold concentration inducing venous pain,"rat, in vivo",> 10 mg/mL
same,"Reaction (+ = reaction, - = no reaction)","rat, in vivo",+
same,concentration at which no reaction was induced,"rat, in vivo",below 10 mg/ml
O=S(=O)([O-])CCS.[Na+],prevention of pain induced by mafosfamide lysine salt,"rat, in vivo",completely prevented the pain-inducing effect of mafosfamide lysine salt
"CC(=O)N[C@@H](CS)C(=O)O [NAC, N-acetyl-cysteine]",prevention of pain induced by mafosfamide lysine salt,5 molar mesna or NAC solution,completely prevented the pain-inducing effect of mafosfamide lysine salt
